The values that follow come from PMC7614683, “A small molecule PI3Kα activator for cardioprotection and neuroregeneration” (Nature, 2023).

Holding throughout (experiment): SelectScreen Adapta
Holding throughout (format): biochemical

For test [1], the target named is T1, GSG2 (Haspin) (Homo sapiens, UniProt Q8TF76).
T1 sequence (Q8TF76 1-798): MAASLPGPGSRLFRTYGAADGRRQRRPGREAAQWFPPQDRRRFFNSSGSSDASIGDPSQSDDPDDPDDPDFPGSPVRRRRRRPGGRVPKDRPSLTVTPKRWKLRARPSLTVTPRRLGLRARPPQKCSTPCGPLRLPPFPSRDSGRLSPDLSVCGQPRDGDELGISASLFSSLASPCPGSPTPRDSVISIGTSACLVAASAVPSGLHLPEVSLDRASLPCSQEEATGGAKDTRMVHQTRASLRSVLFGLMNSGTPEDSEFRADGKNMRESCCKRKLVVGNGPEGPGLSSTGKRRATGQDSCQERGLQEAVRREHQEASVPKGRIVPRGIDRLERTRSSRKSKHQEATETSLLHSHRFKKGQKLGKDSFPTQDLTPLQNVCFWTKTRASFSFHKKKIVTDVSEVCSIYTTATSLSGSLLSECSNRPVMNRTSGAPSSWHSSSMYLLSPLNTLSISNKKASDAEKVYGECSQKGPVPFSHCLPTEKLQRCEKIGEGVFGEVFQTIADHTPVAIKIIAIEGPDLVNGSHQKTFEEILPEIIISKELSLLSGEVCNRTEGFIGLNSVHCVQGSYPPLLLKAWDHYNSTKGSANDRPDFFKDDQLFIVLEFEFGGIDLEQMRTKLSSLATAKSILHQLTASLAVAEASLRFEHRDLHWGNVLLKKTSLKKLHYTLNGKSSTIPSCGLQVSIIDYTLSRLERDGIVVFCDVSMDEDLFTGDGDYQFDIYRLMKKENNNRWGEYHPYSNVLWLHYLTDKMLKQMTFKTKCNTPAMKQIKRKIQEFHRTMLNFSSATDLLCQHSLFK
On the procedure: (§1) 133 protein kinases and 7 lipid kinases were counterscreened, with 1938 used at 1 μM, using the Adapta, Lantha and Z-LYTE assays (SelectScreen Kinase Profiling Service; Thermofisher – experimental details of these assays can be found here: https://www.thermofisher.com/uk/en/home/industrial/pharma-biopharma/drug-discovery-development/target-and-lead-identification-and-validation/kinasebiology/kinase-activity-assays.html. The tree represention in KinMap[59] generated courtesy of Cell Signaling Technology, Inc. (www.cellsignal.com). mTORC1 (mTOR/RAPTOR/LST8) protein complex and ATM kinase and substrates were produced as previously described[57],[60]. Screening of 1938 was conducted using SuperSep Phos-Tag 50 μmol/l 100 x 100 x 6.6 mm 17-well (192-18001/199-18011) gels. For ATM assays, 100 nM ATM was incubated for 30 min at 30°C with 5 μM GST-p53 and 1 mM ATP, in the absence or presence of 200 μM 1938 in ATM Kinase Buffer (50 mM HEPES pH 7.5, 100 mM NaCl, 10% glycerol, 2 mM […], 5 mM MgCl2). As a positive control for ATM activation, the same reaction was carried out with 100 nM ATM/5 μM GST-p53/1 mM ATP in the presence of 100 nM Mre11-Rad50-Nbs1 (MRN) complex, a known activator of ATM[61]. For mTORC1 assays, 50 nM mTORC1 complex (mTOR/LST8/RAPTOR) was incubated for 3 h at 30°C with 15 μM 4E-BP1, 10 mM MgCl2 and 250 μM ATP, in the absence or presence of 200 μM 1938. As a ‘positive’ control, a higher concentration (150 nM) of mTORC1 complex (mTOR/LST8/RAPTOR) was incubated for 3 h at 30°C with 15 μM 4E-BP1, 10 mM MgCl2 and 250 μM ATP. Kinase reactions were quenched by addition of SDS-PAGE Loading Buffer (as per manufacturer’s instructions) and freezing at -20°C before being run on the Phos-tag gels at 150 V for 90 min. Gels were then stained using InstantBlue™ Coomassie, and quantified using BioRad Image Lab Software. Kinase assays were carried out in triplicate.

The target in test [2] is T2, NUAK1 (ARK5) (Homo sapiens, UniProt O60285).
T2 sequence (O60285 1-661): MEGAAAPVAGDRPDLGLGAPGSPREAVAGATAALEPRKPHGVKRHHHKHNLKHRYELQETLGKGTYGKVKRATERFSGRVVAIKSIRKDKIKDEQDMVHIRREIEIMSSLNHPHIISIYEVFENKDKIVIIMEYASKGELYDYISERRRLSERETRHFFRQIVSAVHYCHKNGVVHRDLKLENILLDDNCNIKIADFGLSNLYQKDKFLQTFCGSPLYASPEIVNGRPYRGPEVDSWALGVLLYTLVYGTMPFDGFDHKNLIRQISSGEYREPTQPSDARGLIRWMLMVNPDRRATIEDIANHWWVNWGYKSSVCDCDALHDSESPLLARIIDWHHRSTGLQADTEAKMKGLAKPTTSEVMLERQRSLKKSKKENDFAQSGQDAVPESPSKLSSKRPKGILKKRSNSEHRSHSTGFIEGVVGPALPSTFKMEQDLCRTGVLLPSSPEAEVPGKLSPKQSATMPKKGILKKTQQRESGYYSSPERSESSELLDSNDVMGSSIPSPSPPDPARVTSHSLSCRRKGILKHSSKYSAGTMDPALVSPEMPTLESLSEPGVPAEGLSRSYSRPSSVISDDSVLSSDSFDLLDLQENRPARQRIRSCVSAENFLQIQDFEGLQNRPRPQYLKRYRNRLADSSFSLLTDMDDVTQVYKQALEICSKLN
As for the experimental part:
as §1

Test [3] addresses PI4KB (PI4K beta) (Homo sapiens, UniProt Q9UBF8). As for the experimental part:
as §1

Test [4] addresses PIK3C3 (hVPS34) (Homo sapiens, UniProt Q8NEB9). On the procedure: as §1
The target in test [5] is PIK3CB/PIK3R1 (p110 beta/p85 alpha) (Homo sapiens, UniProt P42338). On the procedure:
as §1

Test [6] deals with PIK3CD/PIK3R1 (p110 delta/p85 alpha) (Homo sapiens, UniProt O00329). On the procedure:
as §1

Test [7] addresses PIK3CG (p110 gamma) (Homo sapiens, UniProt P48736). On the procedure:
as §1

Molecules are shown by their SMILES. Like-named read-outs stand apart in the source and are kept apart here.

PIK3CB/PIK3R1 (p110 beta/p85 alpha), sequence (P42338 whole entry): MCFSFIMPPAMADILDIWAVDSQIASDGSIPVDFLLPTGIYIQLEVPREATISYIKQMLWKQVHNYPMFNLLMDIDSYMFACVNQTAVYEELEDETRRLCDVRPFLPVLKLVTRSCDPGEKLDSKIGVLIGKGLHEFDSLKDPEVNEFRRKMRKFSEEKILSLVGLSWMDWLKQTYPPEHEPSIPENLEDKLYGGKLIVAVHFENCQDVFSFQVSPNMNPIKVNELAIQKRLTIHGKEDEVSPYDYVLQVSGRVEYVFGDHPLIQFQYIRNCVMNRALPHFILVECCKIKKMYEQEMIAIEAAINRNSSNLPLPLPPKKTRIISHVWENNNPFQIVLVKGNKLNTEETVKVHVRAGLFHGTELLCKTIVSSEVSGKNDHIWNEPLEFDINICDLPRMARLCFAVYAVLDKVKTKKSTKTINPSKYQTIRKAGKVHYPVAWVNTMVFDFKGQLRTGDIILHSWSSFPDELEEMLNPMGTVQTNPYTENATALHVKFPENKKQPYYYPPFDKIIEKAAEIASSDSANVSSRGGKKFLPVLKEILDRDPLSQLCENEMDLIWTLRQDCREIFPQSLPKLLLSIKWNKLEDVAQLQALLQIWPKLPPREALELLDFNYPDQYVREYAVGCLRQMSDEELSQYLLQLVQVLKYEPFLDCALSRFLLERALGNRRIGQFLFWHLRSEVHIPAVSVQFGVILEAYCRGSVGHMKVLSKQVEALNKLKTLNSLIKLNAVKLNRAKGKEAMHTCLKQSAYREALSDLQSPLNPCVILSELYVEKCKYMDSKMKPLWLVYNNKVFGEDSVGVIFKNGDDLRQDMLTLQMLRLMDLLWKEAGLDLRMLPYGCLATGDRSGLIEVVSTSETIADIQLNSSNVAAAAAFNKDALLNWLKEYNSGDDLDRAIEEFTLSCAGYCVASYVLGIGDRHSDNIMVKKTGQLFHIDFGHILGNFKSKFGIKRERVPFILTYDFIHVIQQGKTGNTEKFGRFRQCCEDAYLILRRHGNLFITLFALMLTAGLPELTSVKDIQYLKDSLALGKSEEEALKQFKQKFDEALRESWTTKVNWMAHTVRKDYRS
PIK3CB/PIK3R1 (p110 beta/p85 alpha), sequence (P27986 whole entry partner): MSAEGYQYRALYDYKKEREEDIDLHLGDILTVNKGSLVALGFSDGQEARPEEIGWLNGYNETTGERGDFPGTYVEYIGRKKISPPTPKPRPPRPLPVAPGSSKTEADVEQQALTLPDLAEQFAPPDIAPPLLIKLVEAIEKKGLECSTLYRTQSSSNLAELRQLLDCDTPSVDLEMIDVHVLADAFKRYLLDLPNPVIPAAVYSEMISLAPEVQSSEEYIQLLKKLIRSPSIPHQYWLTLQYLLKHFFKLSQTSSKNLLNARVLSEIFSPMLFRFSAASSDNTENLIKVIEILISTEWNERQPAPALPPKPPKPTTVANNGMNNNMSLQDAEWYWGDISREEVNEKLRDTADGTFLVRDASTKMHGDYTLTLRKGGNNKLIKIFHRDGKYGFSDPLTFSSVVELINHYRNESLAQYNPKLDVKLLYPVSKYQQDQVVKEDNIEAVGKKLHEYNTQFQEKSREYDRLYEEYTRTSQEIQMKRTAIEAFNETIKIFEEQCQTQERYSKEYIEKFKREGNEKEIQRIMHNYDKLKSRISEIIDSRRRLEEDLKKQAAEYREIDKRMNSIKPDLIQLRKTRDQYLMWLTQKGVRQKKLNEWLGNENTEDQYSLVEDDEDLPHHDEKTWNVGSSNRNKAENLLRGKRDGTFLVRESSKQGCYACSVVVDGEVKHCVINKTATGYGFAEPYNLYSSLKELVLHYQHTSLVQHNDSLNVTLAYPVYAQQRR
PIK3CD/PIK3R1 (p110 delta/p85 alpha), sequence (O00329 whole entry): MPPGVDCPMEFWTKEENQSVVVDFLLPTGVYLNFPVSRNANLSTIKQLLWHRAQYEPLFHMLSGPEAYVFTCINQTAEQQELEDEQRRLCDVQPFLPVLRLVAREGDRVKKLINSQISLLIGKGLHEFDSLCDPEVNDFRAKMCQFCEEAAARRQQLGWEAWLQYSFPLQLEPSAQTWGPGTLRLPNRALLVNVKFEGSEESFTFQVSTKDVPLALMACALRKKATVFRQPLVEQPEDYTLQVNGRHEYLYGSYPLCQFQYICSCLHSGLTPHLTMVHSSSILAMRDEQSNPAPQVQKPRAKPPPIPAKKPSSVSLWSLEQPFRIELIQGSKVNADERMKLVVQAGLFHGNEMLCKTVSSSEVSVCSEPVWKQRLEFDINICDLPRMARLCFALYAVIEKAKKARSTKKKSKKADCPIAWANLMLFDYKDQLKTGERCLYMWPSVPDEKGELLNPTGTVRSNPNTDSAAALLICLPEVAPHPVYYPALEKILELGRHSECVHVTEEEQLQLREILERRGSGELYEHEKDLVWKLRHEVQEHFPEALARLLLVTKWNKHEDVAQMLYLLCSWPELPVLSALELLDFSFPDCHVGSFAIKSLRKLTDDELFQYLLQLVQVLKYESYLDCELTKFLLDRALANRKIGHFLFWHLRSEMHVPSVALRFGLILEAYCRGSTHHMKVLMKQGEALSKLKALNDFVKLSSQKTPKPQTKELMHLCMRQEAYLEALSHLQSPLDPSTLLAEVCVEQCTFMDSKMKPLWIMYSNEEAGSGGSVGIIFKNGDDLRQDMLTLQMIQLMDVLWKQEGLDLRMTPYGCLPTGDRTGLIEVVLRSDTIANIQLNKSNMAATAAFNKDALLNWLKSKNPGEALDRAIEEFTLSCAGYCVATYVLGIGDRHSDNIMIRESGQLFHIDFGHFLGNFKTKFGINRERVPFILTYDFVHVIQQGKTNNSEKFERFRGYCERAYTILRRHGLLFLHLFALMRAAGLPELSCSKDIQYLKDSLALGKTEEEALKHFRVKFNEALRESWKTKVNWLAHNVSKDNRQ
PIK3CD/PIK3R1 (p110 delta/p85 alpha), sequence (P27986 whole entry partner): as the sequence (P27986 whole entry partner) above
PI4KB (PI4K beta), sequence (Q9UBF8 whole entry): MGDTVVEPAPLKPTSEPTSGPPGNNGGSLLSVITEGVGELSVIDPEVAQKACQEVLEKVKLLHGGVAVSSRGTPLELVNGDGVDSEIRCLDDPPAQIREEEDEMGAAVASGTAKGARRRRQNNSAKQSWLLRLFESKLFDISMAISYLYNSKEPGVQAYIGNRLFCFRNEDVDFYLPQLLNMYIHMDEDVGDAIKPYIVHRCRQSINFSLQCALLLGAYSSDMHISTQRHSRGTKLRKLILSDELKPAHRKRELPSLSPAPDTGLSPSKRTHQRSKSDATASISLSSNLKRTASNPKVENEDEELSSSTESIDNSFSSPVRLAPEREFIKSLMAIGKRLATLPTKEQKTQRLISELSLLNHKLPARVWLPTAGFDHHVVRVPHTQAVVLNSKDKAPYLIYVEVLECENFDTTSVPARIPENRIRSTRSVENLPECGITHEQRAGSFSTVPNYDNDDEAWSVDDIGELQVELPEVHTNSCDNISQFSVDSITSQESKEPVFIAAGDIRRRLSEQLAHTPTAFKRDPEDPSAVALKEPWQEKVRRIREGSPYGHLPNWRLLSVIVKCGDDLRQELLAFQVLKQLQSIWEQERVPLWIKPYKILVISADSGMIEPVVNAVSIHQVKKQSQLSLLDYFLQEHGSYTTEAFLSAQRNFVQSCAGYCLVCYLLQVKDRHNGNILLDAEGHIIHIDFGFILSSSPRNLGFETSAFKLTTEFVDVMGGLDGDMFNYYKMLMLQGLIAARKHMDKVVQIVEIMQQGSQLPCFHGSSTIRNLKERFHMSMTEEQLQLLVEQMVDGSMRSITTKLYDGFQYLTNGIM
PIK3C3 (hVPS34), sequence (Q8NEB9 whole entry): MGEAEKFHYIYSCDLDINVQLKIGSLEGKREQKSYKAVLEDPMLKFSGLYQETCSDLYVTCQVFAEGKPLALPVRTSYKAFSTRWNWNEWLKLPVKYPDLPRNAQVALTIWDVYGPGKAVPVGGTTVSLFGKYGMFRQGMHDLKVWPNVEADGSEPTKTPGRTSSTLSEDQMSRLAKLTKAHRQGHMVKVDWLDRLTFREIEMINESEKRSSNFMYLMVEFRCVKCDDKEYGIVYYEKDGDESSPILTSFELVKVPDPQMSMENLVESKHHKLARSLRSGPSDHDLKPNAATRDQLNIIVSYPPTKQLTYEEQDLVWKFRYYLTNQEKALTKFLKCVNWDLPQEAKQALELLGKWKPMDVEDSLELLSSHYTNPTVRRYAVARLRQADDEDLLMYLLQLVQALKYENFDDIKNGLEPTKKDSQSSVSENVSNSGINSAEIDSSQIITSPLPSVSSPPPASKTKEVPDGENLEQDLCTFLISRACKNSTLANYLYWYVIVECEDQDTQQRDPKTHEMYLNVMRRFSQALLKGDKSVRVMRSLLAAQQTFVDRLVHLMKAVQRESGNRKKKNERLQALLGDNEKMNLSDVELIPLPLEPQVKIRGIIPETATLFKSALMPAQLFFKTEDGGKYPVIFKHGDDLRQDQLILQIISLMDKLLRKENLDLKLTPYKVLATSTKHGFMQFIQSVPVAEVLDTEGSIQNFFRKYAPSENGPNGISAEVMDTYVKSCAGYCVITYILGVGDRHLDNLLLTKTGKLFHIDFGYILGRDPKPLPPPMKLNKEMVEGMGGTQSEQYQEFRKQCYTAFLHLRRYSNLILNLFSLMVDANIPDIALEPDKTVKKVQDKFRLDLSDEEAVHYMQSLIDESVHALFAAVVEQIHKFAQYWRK

In general, inhibition refers to the change of the read-out against control, counted positive when it falls. In the case of `CCN1CCN(c2ccc(Nc3cc(Nc4cccc5c4N(C(C)=O)CC5)ccn3)cc2)CC1` [Compound 1938], the inhibition at 1 µM in test [1] (read-out: % Inhibition Point 1) is -18%; in test [1] (read-out: % Inhibition Point 2), 2.17%; in test [1] (read-out: % Inhibition mean) it was -8%; in test [2] (read-out: % Inhibition Point 1) it was 45%; in test [2] (read-out: % Inhibition Point 2), 39%; in test [2] (read-out: % Inhibition mean), 42%. In addition, the inhibition at 1 µM in test [3] (read-out: % Inhibition Point 1) is -1.1%; in test [3] (read-out: % Inhibition Point 2), 0.786%; in test [3] (read-out: % Inhibition mean), -0.157%; in test [4] (read-out: % Inhibition Point 1) it was 3.28%; in test [4] (read-out: % Inhibition Point 2) it was 7.6%; in test [4] (read-out: % Inhibition mean), 5.44%. Also, the inhibition at 1 µM in test [5] (read-out: % Inhibition Point 1) is 2.51%; in test [5] (read-out: % Inhibition Point 2) it was 0.803%; in test [5] (read-out: % Inhibition mean), 1.66%; in test [6] (read-out: % Inhibition Point 1), 11%; in test [6] (read-out: % Inhibition Point 2), -5%; in test [6] (read-out: % Inhibition mean), 2.81%. Further, the inhibition at 1 µM in test [7] (read-out: % Inhibition Point 1) came to 4.3%; in test [7] (read-out: % Inhibition Point 2), 13%; in test [7] (read-out: % Inhibition mean), 8.53%.
